Where a SMILES comes first, the peptide text is derived from it.
Each compound was assayed against HLA-A02 (Homo sapiens, UniProt P04439, D140Y/D185E/D98H/E176V/E277Q/G131W/G231S/I119V/I121R/I166T/I218V/L300P/L318F/N151K/N90K/P208A/P217A/Q86G/Q94H/R138H/R169H/T345S) (assay: Competition binding assay using soluble HLA class I).

| SMILES | IC50 [nM] | Ki [nM] |
| --- | --- | --- |
| CC(C)C[C@H](NC(=O)[C@H](CS)NC(=O)[C@H](CO)NC(=O)[C@H](CC(C)C)NC(=O)[C@H](CC(C)C)NC(=O)[C@H](C)NC(=O)[C@H](CC(C)C)NC(=O)[C@H](CC(C)C)NC(=O)[C@@H](N)Cc1ccccc1)C(=O)O | 136 | 136 |
| CC(C)C[C@H](NC(=O)[C@H](C)NC(=O)[C@H](CC(C)C)NC(=O)[C@H](CC(C)C)NC(=O)[C@@H](N)Cc1ccccc1)C(=O)N[C@@H](CC(C)C)C(=O)N[C@@H](CO)C(=O)N[C@@H](CS)C(=O)N[C@@H](CC(C)C)C(=O)N[C@H](C(=O)O)[C@@H](C)O | 132 | 132 |
| CC(C)C[C@H](NC(=O)[C@H](CC(C)C)NC(=O)[C@H](Cc1c[nH]c2ccccc12)NC(=O)CNC(=O)[C@H](C)NC(=O)[C@H](Cc1c[nH]c2ccccc12)NC(=O)CNC(=O)[C@H](CC(C)C)NC(=O)CN)C(=O)O |  | 27 |
| CC[C@H](C)[C@H](NC(=O)[C@H](CS)NC(=O)CNC(=O)[C@H](CC(C)C)NC(=O)[C@H](CC(C)C)NC(=O)CN)C(=O)N[C@H](C(=O)N[C@H](C(=O)N[C@@H](CO)C(=O)N[C@@H](CC(C)C)C(=O)O)[C@@H](C)O)[C@@H](C)CC | 26 | 26 |
| CC[C@H](C)[C@H](N)C(=O)N[C@@H](CCSC)C(=O)N[C@@H](Cc1ccc(O)cc1)C(=O)N[C@@H](C)C(=O)N1CCC[C@H]1C(=O)N[C@H](C(=O)N[C@@H](CC(C)C)C(=O)N[C@@H](Cc1c[nH]c2ccccc12)C(=O)N[C@@H](C)C(=O)O)[C@@H](C)O | 46 | 46 |
| CC[C@H](C)[C@H](NC(=O)[C@@H](NC(=O)[C@H](CC(C)C)NC(=O)[C@H](CS)NC(=O)[C@H](CO)NC(=O)[C@H](CC(C)C)NC(=O)[C@@H](N)CC(C)C)[C@@H](C)O)C(=O)N1CCC[C@H]1C(=O)N[C@@H](C)C(=O)O | 12 | 12 |
| CC(C)C[C@H](NC(=O)[C@@H](NC(=O)[C@@H](N)CC(C)C)C(C)C)C(=O)N[C@@H](CC(N)=O)C(=O)N1CCC[C@H]1C(=O)N[C@@H](CO)C(=O)N[C@H](C(=O)N[C@@H](C)C(=O)N[C@@H](C)C(=O)O)C(C)C |  | 1680 |
| CC[C@H](C)[C@H](NC(=O)[C@@H](NC(=O)[C@@H](N)CC(N)=O)[C@@H](C)CC)C(=O)N[C@@H](CCSC)C(=O)N[C@@H](Cc1ccc(O)cc1)C(=O)N[C@@H](C)C(=O)N1CCC[C@H]1C(=O)N[C@H](C(=O)N[C@@H](CC(C)C)C(=O)O)[C@@H](C)O | 70 | 70 |
| CC[C@H](C)[C@H](NC(=O)[C@@H](N)CCC(N)=O)C(=O)N[C@H](C(=O)NCC(=O)NCC(=O)N[C@H](C(=O)N[C@@H](Cc1ccc(O)cc1)C(=O)N[C@@H](CC(C)C)C(=O)N[C@@H](CC(C)C)C(=O)O)C(C)C)C(C)C | 228 |  |
| CC(C)C[C@H](NC(=O)[C@@H](NC(=O)[C@@H](NC(=O)[C@H](CC(C)C)NC(=O)[C@@H](N)CCCNC(=N)N)C(C)C)C(C)C)C(=O)N[C@@H](C)C(=O)N[C@H](C(=O)N[C@@H](C)C(=O)N[C@H](C(=O)O)[C@@H](C)O)[C@@H](C)O |  | 16700 |
| CC[C@H](C)[C@H](NC(=O)[C@H](Cc1c[nH]cn1)NC(=O)[C@@H](NC(=O)[C@H](CC(C)C)NC(=O)CNC(=O)[C@@H](NC(=O)[C@H](Cc1ccccc1)NC(=O)[C@@H](NC(=O)[C@@H](N)CO)C(C)C)[C@@H](C)O)[C@@H](C)O)C(=O)O |  | 84 |
| CC(C)C[C@H](NC(=O)[C@H](CC(C)C)NC(=O)[C@@H]1CCCN1C(=O)[C@@H](NC(=O)[C@@H]1CCCN1C(=O)CNC(=O)[C@H](Cc1c[nH]cn1)NC(=O)[C@H](CC(C)C)NC(=O)[C@@H](N)[C@@H](C)O)[C@@H](C)O)C(=O)O | 68 | 68 |
| CC[C@H](C)[C@H](NC(=O)[C@H](CC(N)=O)NC(=O)CNC(=O)[C@H](CC(C)C)NC(=O)[C@@H](N)Cc1c[nH]c2ccccc12)C(=O)N[C@H](C(=O)N[C@@H](CCSC)C(=O)N[C@@H](Cc1ccc(O)cc1)C(=O)N[C@@H](C)C(=O)O)[C@@H](C)CC |  | 14.5 |
| CC[C@H](C)[C@H](NC(=O)[C@@H](N)Cc1ccc(O)cc1)C(=O)N1CCC[C@H]1C(=O)N[C@@H](CC(C)C)C(=O)N[C@H](C(=O)NCC(=O)N[C@@H](C)C(=O)N1CCC[C@H]1C(=O)N[C@@H](CC(C)C)C(=O)O)C(C)C | 337 | 77 |
| CC(C)C[C@H](NC(=O)[C@@H]1CCCN1C(=O)[C@H](Cc1c[nH]c2ccccc12)NC(=O)[C@@H]1CCCN1C(=O)[C@H](Cc1ccc(O)cc1)NC(=O)CNC(=O)[C@@H]1CCCN1C(=O)[C@H](CCC(N)=O)NC(=O)[C@H](C)N)C(=O)O (H-AQPGYPWPL-OH; N-terminus and C-terminus assumed) |  | 382 |
| CC(C)C[C@H](NC(=O)[C@H](CCCNC(=N)N)NC(=O)[C@H](Cc1ccc(O)cc1)NC(=O)[C@@H]1CCCN1C(=O)[C@H](Cc1ccc(O)cc1)NC(=O)[C@H](CC(=O)O)NC(=O)[C@@H](NC(=O)[C@H](CC(C)C)NC(=O)[C@@H](N)CS)C(C)C)C(=O)O (H-CLVDYPYRL-OH; N-terminus and C-terminus assumed) | 437 | 437 |

| SMILES | IC50 [nM] | Ki [nM] |
| --- | --- | --- |
| CC(C)C[C@H](NC(=O)[C@H](Cc1ccccc1)NC(=O)[C@@H](NC(=O)[C@H](CO)NC(=O)CNC(=O)[C@H](CS)NC(=O)[C@H](CC(C)C)NC(=O)[C@@H](N)CC(=O)O)C(C)C)C(=O)N[C@H](C(=O)O)C(C)C (H-DLCGSVFLV-OH; N-terminus and C-terminus assumed) |  | 789 |
| CC[C@H](C)[C@H](NC(=O)[C@@H](N)Cc1ccccc1)C(=O)N1CCC[C@H]1C(=O)N[C@H](C(=O)N[C@@H](CCC(=O)O)C(=O)N[C@@H](CO)C(=O)N[C@@H](CCSC)C(=O)N[C@@H](CCC(=O)O)C(=O)N[C@H](C(=O)O)[C@@H](C)O)C(C)C (H-FIPVESMET-OH) |  | 934 |
| CSCC[C@H](NC(=O)CN)C(=O)N[C@@H](Cc1ccccc1)C(=O)N[C@@H](CC(=O)O)C(=O)N[C@@H](CO)C(=O)N[C@@H](CO)C(=O)N[C@H](C(=O)N[C@@H](CC(C)C)C(=O)N[C@@H](CS)C(=O)O)C(C)C (H-GMFDSSVLC-OH) | 114 | 71 |
| CC[C@H](C)[C@H](N)C(=O)N[C@@H](CCSC)C(=O)N[C@@H](C)C(=O)N[C@@H](CS)C(=O)N[C@@H](CCSC)C(=O)N[C@@H](CO)C(=O)N[C@@H](C)C(=O)N[C@@H](CC(=O)O)C(=O)N[C@@H](CC(C)C)C(=O)O (H-IMACMSADL-OH; N-terminus and C-terminus assumed) | 66 | 66 |
| CC[C@H](C)[C@H](N)C(=O)N[C@@H](CCSC)C(=O)N[C@@H](C)C(=O)N[C@@H](CCCCN)C(=O)N[C@@H](CC(N)=O)C(=O)N[C@@H](CCC(=O)O)C(=O)N[C@H](C(=O)N[C@@H](Cc1ccccc1)C(=O)N[C@@H](CS)C(=O)N[C@H](C(=O)O)C(C)C)C(C)C (H-IMAKNEVFCV-OH; N-terminus and C-terminus assumed) | 199 | 199 |
| CC(C)C[C@H](NC(=O)[C@@H](NC(=O)[C@H](CC(C)C)NC(=O)[C@@H](NC(=O)[C@@H](N)CCCCN)C(C)C)C(C)C)C(=O)N[C@@H](CC(N)=O)C(=O)N1CCC[C@H]1C(=O)N[C@@H](CO)C(=O)N[C@H](C(=O)O)C(C)C (H-KVLVLNPSV-OH) | 50 | 50 |
| CSCC[C@H](N)C(=O)N[C@@H](C)C(=O)N[C@@H](CC(C)C)C(=O)N[C@@H](Cc1ccc(O)cc1)C(=O)N[C@@H](CC(=O)O)C(=O)N[C@H](C(=O)N[C@H](C(=O)N[C@@H](CO)C(=O)N[C@H](C(=O)O)[C@@H](C)O)C(C)C)C(C)C (H-MALYDVVST-OH; N-terminus and C-terminus assumed) |  | 1140 |
| CC[C@H](C)[C@H](NC(=O)[C@H](CO)NC(=O)[C@H](Cc1ccccc1)NC(=O)[C@H](CO)NC(=O)[C@H](CS)NC(=O)CNC(=O)[C@@H]1CCCN1C(=O)[C@H](CC(C)C)NC(=O)[C@@H](N)CC(N)=O)C(=O)O (H-NLPGCSFSI-OH) | 83 | 70 |
| CC[C@H](C)[C@H](NC(=O)[C@H](Cc1ccc(O)cc1)NC(=O)[C@H](CC(C)C)NC(=O)[C@@H](N)CCCNC(=N)N)C(=O)NCC(=O)NCC(=O)N1CCC[C@H]1C(=O)N[C@@H](CC(C)C)C(=O)N[C@H](C(=O)O)[C@@H](C)O (H-RLYIGGPLT-OH) |  | 536 |
| CSCC[C@H](NC(=O)[C@@H](N)CO)C(=O)N[C@H](C(=O)NCC(=O)N[C@@H](CC(N)=O)C(=O)N[C@@H](Cc1c[nH]c2ccccc12)C(=O)N[C@@H](C)C(=O)N[C@@H](CCCCN)C(=O)N[C@H](C(=O)O)C(C)C)C(C)C (H-SMVGNWAKV-OH; N-terminus and C-terminus assumed) | 158 | 158 |
| CC[C@H](C)[C@H](NC(=O)[C@H](Cc1c[nH]cn1)NC(=O)[C@@H](NC(=O)[C@H](CC(C)C)NC(=O)CNC(=O)[C@@H](NC(=O)[C@H](Cc1ccccc1)NC(=O)[C@@H](NC(=O)[C@@H](N)CO)C(C)C)[C@@H](C)O)[C@@H](C)CC)C(=O)O (H-SVFTGLIHI-OH) | 101 |  |
| CC(C)C[C@H](NC(=O)[C@@H](NC(=O)[C@H](CO)NC(=O)[C@@H](NC(=O)[C@@H](N)C(C)C)C(C)C)[C@@H](C)O)C(=O)N1CCC[C@H]1C(=O)N[C@@H](CCC(N)=O)C(=O)N[C@@H](C)C(=O)N[C@H](C(=O)O)C(C)C (H-VVSTLPQAV-OH; N-terminus and C-terminus assumed) |  | 884 |
| CC(C)C[C@H](NC(=O)[C@@H](N)Cc1ccc(O)cc1)C(=O)N[C@@H](Cc1ccccc1)C(=O)N[C@@H](CC(N)=O)C(=O)N[C@@H](Cc1c[nH]c2ccccc12)C(=O)N[C@@H](C)C(=O)N[C@H](C(=O)N[C@@H](CCCNC(=N)N)C(=O)N[C@H](C(=O)O)[C@@H](C)O)C(C)C (H-YLFNWAVRT-OH; N-terminus and C-terminus assumed) | 29 | 29 |
| CC(C)[C@H](NC(=O)[C@@H](NC(=O)[C@H](C)NC(=O)[C@H](CCC(N)=O)NC(=O)[C@@H](N)Cc1ccc(O)cc1)[C@@H](C)O)C(=O)N[C@@H](CS)C(=O)N[C@@H](C)C(=O)N[C@@H](CCCNC(=N)N)C(=O)N[C@@H](C)C(=O)O (H-YQATVCARA-OH) | 20 | 20 |
| CC(C)C[C@H](NC(=O)[C@H](C)NC(=O)[C@H](CC(C)C)NC(=O)[C@H](CC(C)C)NC(=O)[C@H](CC(C)C)NC(=O)[C@H](CC(C)C)NC(=O)[C@H](CC(C)C)NC(=O)[C@H](CC(C)C)NC(=O)[C@@H]1CCCN1)C(=O)O [PLLLLLLAL] (H-PLLLLLLAL-OH) |  | 6550 |

— patent publication US20060093617A1, “Peptides for inducing a CTL and/or HTL response to hepatitis C virus” (Innogenetics, N.V., priority 2004, published 2006)
